Laboratory results as given in patent publication US9708316B2 (BRISTOL-MYERS SQUIBB COMPANY, priority 2014, dated 2017).

Legend:
HIS-TGFβR1 T204D = target: T1, HIS-TGFβR1 T204D (Homo sapiens, UniProt P36897, T204D); experiment: HTRF probe-displacement assay, HIS-TGFβR1 T204D; assay type: binding; details: read-out: TGFβR1 (μM) IC50
T1 sequence (P36897 34-503 T204D): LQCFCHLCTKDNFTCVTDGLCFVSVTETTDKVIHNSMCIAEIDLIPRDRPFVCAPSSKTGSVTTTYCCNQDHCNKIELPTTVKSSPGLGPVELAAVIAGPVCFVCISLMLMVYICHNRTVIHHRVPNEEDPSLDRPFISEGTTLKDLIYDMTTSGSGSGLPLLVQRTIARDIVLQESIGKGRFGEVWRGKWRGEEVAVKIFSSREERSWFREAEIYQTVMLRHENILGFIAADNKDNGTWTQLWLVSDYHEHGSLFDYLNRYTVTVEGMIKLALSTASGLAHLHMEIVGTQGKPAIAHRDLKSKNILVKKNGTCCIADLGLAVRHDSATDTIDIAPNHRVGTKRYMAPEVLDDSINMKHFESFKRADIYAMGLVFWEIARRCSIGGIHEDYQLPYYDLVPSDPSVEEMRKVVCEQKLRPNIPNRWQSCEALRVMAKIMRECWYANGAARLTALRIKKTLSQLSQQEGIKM

HIS-TGFβR2 WT = HIS-TGFβR2 WT (Homo sapiens, UniProt P37173); experiment: HTRF probe-displacement assay, HIS-TGFβR2 WT; assay type: binding
Chain of HIS-TGFβR2 WT (P37173 23-567): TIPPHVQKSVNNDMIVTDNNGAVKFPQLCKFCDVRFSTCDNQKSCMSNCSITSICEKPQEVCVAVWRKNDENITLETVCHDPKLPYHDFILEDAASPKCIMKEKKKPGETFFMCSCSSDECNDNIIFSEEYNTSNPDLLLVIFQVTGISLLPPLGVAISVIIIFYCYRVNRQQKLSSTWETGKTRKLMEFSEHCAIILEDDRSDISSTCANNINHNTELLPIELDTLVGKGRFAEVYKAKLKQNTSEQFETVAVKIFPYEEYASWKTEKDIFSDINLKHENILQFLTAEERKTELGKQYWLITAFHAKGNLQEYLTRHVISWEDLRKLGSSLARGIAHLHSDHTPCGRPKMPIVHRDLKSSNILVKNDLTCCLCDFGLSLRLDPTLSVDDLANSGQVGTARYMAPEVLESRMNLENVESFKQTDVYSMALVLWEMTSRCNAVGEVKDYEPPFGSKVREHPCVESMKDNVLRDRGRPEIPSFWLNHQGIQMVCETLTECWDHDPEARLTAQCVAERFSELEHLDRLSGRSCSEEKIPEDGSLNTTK

SMILES: COc1cnc2c(-c3cccc(Cl)n3)c(-c3ccnc(NC(C)=O)c3)[nH]c2c1 [Example 48, N-{4-[3-(6-Chloropyridin-2-yl)-6-methoxy-1H-pyrrolo[3,2-b]pyridin-2-yl]pyridin-2-yl}acetamide]
- IC50 (HIS-TGFβR1 T204D): 0.001 µM
- IC50 (HIS-TGFβR2 WT): 0.076 µM

SMILES: COc1ccc(-c2c(-c3ccnc(NC(C)=O)c3)[nH]c3cc(C#N)cnc23)nc1 [Example 92, N-{4-[6-Cyano-3-(5-methoxypyridin-2-yl)-1H-pyrrolo[3,2-b]pyridin-2-yl]pyridin-2-yl}acetamide]
- IC50 (HIS-TGFβR1 T204D): 0.002 µM
- IC50 (HIS-TGFβR2 WT): > 15 µM

SMILES: CC(=O)Nc1cc(-c2[nH]c3c(C)ccnc3c2-c2csc(C)n2)ccn1 [Example 221, N-(4-(7-Methyl-3-(2-methylthiazol-4-yl)-1H-pyrrolo[3,2-b]pyridin-2-yl)pyridin-2-yl)acetamide]
- IC50 (HIS-TGFβR1 T204D): 0.0037 µM
- IC50 (HIS-TGFβR2 WT): 1.36 µM

SMILES: CC(=O)Nc1cc(-c2[nH]c3cccnc3c2-c2ccn[nH]2)ccn1 [Example 191, N-(4-(3-(1H-Pyrazol-5-yl)-1H-pyrrolo[3,2-b]pyridin-2-yl)pyridin-2-yl)acetamide]
- IC50 (HIS-TGFβR1 T204D): 0.0939 µM
- IC50 (HIS-TGFβR2 WT): 2 µM

SMILES: COc1ccc(-c2c(-c3ccnc(NC(=O)CN4CCOCC4)c3)[nH]c3cc(Cl)cnc23)cn1 [Example 290, N-(4-(6-Chloro-3-(6-methoxypyridin-3-yl)-1H-pyrrolo[3,2-b]pyridin-2-yl)pyridin-2-yl)-2-morpholinoacetamide]
- IC50 (HIS-TGFβR1 T204D): 0.002 µM
- IC50 (HIS-TGFβR2 WT): 1.12 µM

SMILES: COc1ccc(-c2c(-c3ccnc(NC(=O)CN4CCN(C)CC4)c3)[nH]c3cc(Cl)cnc23)nc1C [Example 238, N-(4-(6-Chloro-3-(5-methoxy-6-methylpyridin-2-yl)-1H-pyrrolo[3,2-b]pyridin-2-yl)pyridin-2-yl)-2-(4-methylpiperazin-1-yl)acetamide]
- IC50 (HIS-TGFβR1 T204D): 0.0882 µM
- IC50 (HIS-TGFβR2 WT): > 15 µM

SMILES: COc1ccc(-c2c(-c3ccnc(NC(=O)CN(C)C)c3)[nH]c3cc(OC)cnc23)nc1 [Example 115, 2-(Dimethylamino)-N-{4-[6-methoxy-3-(5-methoxypyridin-2-yl)-1H-pyrrolo[3,2-b]pyridin-2-yl]pyridin-2-yl}acetamide]
- IC50 (HIS-TGFβR1 T204D): 0.001 µM
- IC50 (HIS-TGFβR2 WT): 8.68 µM

SMILES: COc1ccc(-c2c(-c3ccnc(NC(C)=O)c3)[nH]c3cc(C)cnc23)cn1 [Example 173, N-(4-(3-(6-Methoxypyridin-3-yl)-6-methyl-1H-pyrrolo[3,2-b]pyridin-2-yl)pyridin-2-yl)acetamide]
- IC50 (HIS-TGFβR1 T204D): 0.15 µM
- IC50 (HIS-TGFβR2 WT): 1.35 µM

SMILES: CC(=O)Nc1cc(-c2[nH]c3cc(F)cnc3c2-c2ncc(Cl)s2)ccn1 [Example 206, N-(4-(3-(5-Chlorothiazol-2-yl)-6-fluoro-1H-pyrrolo[3,2-b]pyridin-2-yl)pyridin-2-yl)acetamide]
- IC50 (HIS-TGFβR1 T204D): 0.0068 µM
- IC50 (HIS-TGFβR2 WT): 0.325 µM

SMILES: CC(=O)Nc1cc(-c2[nH]c3cc(Cl)cnc3c2-c2cccc(C(C)C)n2)ccn1 [Example 260, N-(4-(6-Chloro-3-(6-isopropylpyridin-2-yl)-1H-pyrrolo[3,2-b]pyridin-2-yl)pyridin-2-yl)acetamide]
- IC50 (HIS-TGFβR1 T204D): 0.049 µM
- IC50 (HIS-TGFβR2 WT): > 15 µM

SMILES: CN(C)C1CCN(CC(=O)Nc2cc(-c3[nH]c4cc(Cl)cnc4c3-c3ccc(F)cn3)ccn2)CC1 [Example 245, N-(4-(6-Chloro-3-(5-fluoropyridin-2-yl)-1H-pyrrolo[3,2-b]pyridin-2-yl)pyridin-2-yl)-2-(4-(dimethylamino)piperidin-1-yl)acetamide]
- IC50 (HIS-TGFβR1 T204D): 0.002 µM
- IC50 (HIS-TGFβR2 WT): 4.07 µM

SMILES: CC(=O)Nc1cc(-c2[nH]c3cccnc3c2-c2cccc(Cl)n2)ccn1 [Example 3, N-{4-[3-(6-Chloropyridin-2-yl)-1H-pyrrolo[3,2-b]pyridin-2-yl]pyridin-2-yl}acetamide]
- IC50 (HIS-TGFβR1 T204D): 0.001 µM
- IC50 (HIS-TGFβR2 WT): 0.089 µM

SMILES: COc1ccc(-c2c(-c3ccnc(NC(C)=O)c3)[nH]c3c(CO)ccnc23)cn1 [Example 274, N-(4-(7-(Hydroxymethyl)-3-(6-methoxypyridin-3-yl)-1H-pyrrolo[3,2-b]pyridin-2-yl)pyridin-2-yl)acetamide]
- IC50 (HIS-TGFβR1 T204D): 0.001 µM
- IC50 (HIS-TGFβR2 WT): 0.114 µM

SMILES: CC(=O)Nc1cc(-c2[nH]c3c(CO)ccnc3c2-c2ccc(C)nc2)ccn1 [Example 280, N-(4-(7-(Hydroxymethyl)-3-(6-methylpyridin-3-yl)-1H-pyrrolo[3,2-b]pyridin-2-yl)pyridin-2-yl)acetamide]
- IC50 (HIS-TGFβR1 T204D): 0.023 µM
- IC50 (HIS-TGFβR2 WT): 4.12 µM

SMILES: COc1ccc(-c2c(-c3ccnc(NC(C)=O)c3)[nH]c3cc(-c4c(C)nnn4C)cnc23)nc1 [Example 94, N-{4-[6-(Dimethyl-1H-1,2,3-triazol-5-yl)-3-(5-methoxypyridin-2-yl)-1H-pyrrolo[3,2-b]pyridin-2-yl]pyridin-2-yl}acetamide]
- IC50 (HIS-TGFβR1 T204D): 0.004 µM
- IC50 (HIS-TGFβR2 WT): > 15 µM

SMILES: COc1ccc(-c2c(-c3ccnc(NC(C)=O)c3)[nH]c3cc(C(=O)C(F)(F)F)cnc23)nc1 [Example 296, N-(4-(3-(5-Methoxypyridin-2-yl)-6-(2,2,2-trifluoroacetyl)-1H-pyrrolo[3,2-b]pyridin-2-yl)pyridin-2-yl)acetamide]
- IC50 (HIS-TGFβR1 T204D): 0.002 µM
- IC50 (HIS-TGFβR2 WT): 7.78 µM

SMILES: CC(=O)Nc1cc(-c2[nH]c3cc(Cl)cnc3c2-c2ncccc2C)ccn1 [Example 259, N-(4-(6-Chloro-3-(3-methylpyridin-2-yl)-1H-pyrrolo[3,2-b]pyridin-2-yl)pyridin-2-yl)acetamide]
- IC50 (HIS-TGFβR1 T204D): 0.535 µM
- IC50 (HIS-TGFβR2 WT): > 15 µM

SMILES: O=C(CNCCN1CCOCC1)Nc1cc(-c2[nH]c3cc(Cl)cnc3c2-c2ccc(F)cn2)ccn1 [Example 241, N-{4-[6-Chloro-3-(5-fluoropyridin-2-yl)-1H-pyrrolo[3,2-b]pyridin-2-yl]pyridin-2-yl}-2-{[2-(morpholin-4-yl)ethyl]amino}acetamide]
- IC50 (HIS-TGFβR1 T204D): 0.004 µM
- IC50 (HIS-TGFβR2 WT): 3.67 µM

SMILES: CC(=O)Nc1cc(-c2[nH]c3cc(Cl)cnc3c2-c2ccc(Cl)cn2)ccn1 [Example 46, N-{4-[6-Chloro-3-(5-chloropyridin-2-yl)-1H-pyrrolo[3,2-b]pyridin-2-yl]pyridin-2-yl}acetamide]
- IC50 (HIS-TGFβR1 T204D): 0.008 µM
- IC50 (HIS-TGFβR2 WT): > 15 µM

SMILES: COc1ccc(-c2c(-c3ccnc(NC(C)=O)c3)[nH]c3cc(-c4c(C)noc4C)cnc23)nc1 [Example 93, N-{4-[6-(Dimethyl-1,2-oxazol-4-yl)-3-(5-methoxypyridin-2-yl)-1H-pyrrolo[3,2-b]pyridin-2-yl]pyridin-2-yl}acetamide]
- IC50 (HIS-TGFβR1 T204D): 0.003 µM
- IC50 (HIS-TGFβR2 WT): > 15 µM

SMILES: COc1ccc(-c2c(-c3ccnc(NC(C)=O)c3)[nH]c3cc(N4CCC[C@H]4CO)cnc23)nc1 [Example 162, (S)-N-(4-(6-(2-(Hydroxymethyl)pyrrolidin-1-yl)-3-(5-methoxypyridin-2-yl)-1H-pyrrolo[3,2-b]pyridin-2-yl)pyridin-2-yl)acetamide]
- IC50 (HIS-TGFβR1 T204D): 0.0279 µM
- IC50 (HIS-TGFβR2 WT): > 15 µM

SMILES: COc1ccc(-c2c(-c3ccnc(NC(=O)CN4CCN(CCO)CC4)c3)[nH]c3cc(OC)cnc23)nc1 [Example 120, 2-[4-(2-Hydroxyethyl)piperazin-1-yl]-N-{4-[6-methoxy-3-(5-methoxypyridin-2-yl)-1H-pyrrolo[3,2-b]pyridin-2-yl]pyridin-2-yl}acetamide]
- IC50 (HIS-TGFβR1 T204D): 0.001 µM
- IC50 (HIS-TGFβR2 WT): > 15 µM

SMILES: CCCc1ccnc2c(-c3cccc(C(F)F)n3)c(-c3ccnc(NC(C)=O)c3)[nH]c12 [Example 132, N-(4-{3-[6-(Difluoromethyl)pyridin-2-yl]-7-propyl-1H-pyrrolo[3,2-b]pyridin-2-yl}pyridin-2-yl)acetamide]
- IC50 (HIS-TGFβR1 T204D): 0.001 µM
- IC50 (HIS-TGFβR2 WT): > 15 µM

SMILES: COc1cnc2c(-c3nc(C)cs3)c(-c3ccnc(NC(C)=O)c3)[nH]c2c1 [Example 208, N-(4-(6-Methoxy-3-(4-methylthiazol-2-yl)-1H-pyrrolo[3,2-b]pyridin-2-yl)pyridin-2-yl)acetamide]
- IC50 (HIS-TGFβR1 T204D): 0.0006 µM
- IC50 (HIS-TGFβR2 WT): 0.044 µM

SMILES: CC(=O)Nc1cc(-c2[nH]c3cc(Cl)cnc3c2-c2cccc(NCCO)n2)ccn1 [Example 68, N-[4-(6-Chloro-3-{6-[(2-hydroxyethyl)amino]pyridin-2-yl}-1H-pyrrolo[3,2-b]pyridin-2-yl)pyridin-2-yl]acetamide]
- IC50 (HIS-TGFβR1 T204D): 0.96 µM
- IC50 (HIS-TGFβR2 WT): > 15 µM

SMILES: COc1ccc(-c2c(-c3ccnc(NC(C)=O)c3)[nH]c3cc(C(O)C(F)(F)C(N)=O)cnc23)nc1 (stereo not drawn) [Example 295, 3-(2-(2-Acetamidopyridin-4-yl)-3-(5-methoxypyridin-2-yl)-1H-pyrrolo[3,2-b]pyridin-6-yl)-2,2-difluoro-3-hydroxypropanamide]
- IC50 (HIS-TGFβR1 T204D): 0.001 µM
- IC50 (HIS-TGFβR2 WT): > 15 µM

SMILES: CCNc1cc(-c2[nH]c3cc(Cl)cnc3c2-c2ccc(OC)cn2)ccn1 [Example 242, 4-(6-Chloro-3-(5-methoxypyridin-2-yl)-1H-pyrrolo[3,2-b]pyridin-2-yl)-N-ethylpyridin-2-amine]
- IC50 (HIS-TGFβR1 T204D): 0.033 µM
- IC50 (HIS-TGFβR2 WT): ≥ 15 µM

SMILES: COc1ccc(-c2c(-c3ccnc(NC(C)=O)c3)[nH]c3cccnc23)nn1 [Example 198, N-(4-(3-(6-Methoxypyridazin-3-yl)-1H-pyrrolo[3,2-b]pyridin-2-yl)pyridin-2-yl)acetamide]
- IC50 (HIS-TGFβR1 T204D): 0.0011 µM
- IC50 (HIS-TGFβR2 WT): 1.48 µM

SMILES: CC(=O)Nc1cc(-c2[nH]c3c(CO)ccnc3c2-c2cccc(Cl)n2)ccn1 [Example 276, N-(4-(3-(6-Chloropyridin-2-yl)-7-(hydroxymethyl)-1H-pyrrolo[3,2-b]pyridin-2-yl)pyridin-2-yl)acetamide]
- IC50 (HIS-TGFβR1 T204D): 0.001 µM
- IC50 (HIS-TGFβR2 WT): 0.503 µM

SMILES: CC(=O)Nc1cc(-c2[nH]c3cccnc3c2-c2cc(C)c(F)cn2)ccn1 [Example 24, N-{4-[3-(5-Fluoro-4-methylpyridin-2-yl)-1H-pyrrolo[3,2-b]pyridin-2-yl]pyridin-2-yl}acetamide]
- IC50 (HIS-TGFβR1 T204D): 0.018 µM
- IC50 (HIS-TGFβR2 WT): 0.21 µM
